Reference: PubChem BioAssay (NCI)
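Values below derive from 48-hour exposures of cells grown in 96-well plates, with endpoints linearly interpolated between the two concentrations bracketing the appropriate inhibition level. At the GI50, growth is halved. TGI is the concentration that stops growth completely.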

Legend:
Assay in all cases: NCI anticancer screen, dose series, 48 h
MDA-MB-231 breast = system: MDA-MB-231 breast
U251 CNS = system: U251 CNS
MALME-3M melanoma = system: MALME-3M melanoma
A498 renal = system: A498 renal
HT29 colon = system: HT29 colon
SF-539 CNS = system: SF-539 CNS
HCT-116 colon = system: HCT-116 colon
NCI/ADR-RES ovarian = system: NCI/ADR-RES ovarian
DU-145 prostate = system: DU-145 prostate
T-47D breast = system: T-47D breast
SNB-19 CNS = system: SNB-19 CNS
SF-295 CNS = system: SF-295 CNS
NCI-H23 lung = system: NCI-H23 lung
SK-MEL-28 melanoma = system: SK-MEL-28 melanoma
A549 NSCLC = system: A549 NSCLC
786-0 renal = system: 786-0 renal
CCRF-CEM leukemia = system: CCRF-CEM leukemia
M14 melanoma = system: M14 melanoma
OVCAR-4 ovarian = system: OVCAR-4 ovarian
MDA-MB-435 = system: MDA-MB-435
SNB-75 CNS = system: SNB-75 CNS
TK-10 renal = system: TK-10 renal
MDA-MB-468 breast = system: MDA-MB-468 breast
NCI-H460 lung = system: NCI-H460 lung
BT-549 breast = system: BT-549 breast
HCT-15 colon = system: HCT-15 colon
RXF 393 renal = system: RXF 393 renal
SF-268 CNS = system: SF-268 CNS
K-562 leukemia = system: K-562 leukemia
NCI-H522 lung = system: NCI-H522 lung
SK-MEL-2 melanoma = system: SK-MEL-2 melanoma
HCC-2998 colon = system: HCC-2998 colon
OVCAR-3 ovarian = system: OVCAR-3 ovarian
MOLT-4 leukemia = system: MOLT-4 leukemia
RPMI-8226 leukemia = system: RPMI-8226 leukemia
COLO 205 colon = system: COLO 205 colon
OVCAR-8 ovarian = system: OVCAR-8 ovarian
OVCAR-5 ovarian = system: OVCAR-5 ovarian
SK-OV-3 ovarian = system: SK-OV-3 ovarian
SN12C renal = system: SN12C renal
NCI-H226 lung = system: NCI-H226 lung
HS 578T breast = system: HS 578T breast
LOX IMVI melanoma = system: LOX IMVI melanoma
KM12 colon = system: KM12 colon
SK-MEL-5 melanoma = system: SK-MEL-5 melanoma
HOP-92 NSCLC = system: HOP-92 NSCLC
PC-3 prostate = system: PC-3 prostate
HL-60(TB) leukemia = system: HL-60(TB) leukemia
IGROV1 ovarian = system: IGROV1 ovarian
CAKI-1 renal = system: CAKI-1 renal
SW-620 colon = system: SW-620 colon
UACC-257 melanoma = system: UACC-257 melanoma
UACC-62 melanoma = system: UACC-62 melanoma
HOP-62 NSCLC = system: HOP-62 NSCLC
ACHN renal = system: ACHN renal
SR leukemia = system: SR leukemia
MCF7 breast = system: MCF7 breast
EKVX NSCLC = system: EKVX NSCLC
UO-31 renal = system: UO-31 renal

## COc1cccc(-c2ccc(/C=N/NC(=O)c3[nH]c4ccc(Br)cc4c3-c3ccccc3)s2)c1
MDA-MB-231 breast
  GI50: 4.77 µM
  TGI: 94.7 µM
U251 CNS
  GI50: 4.92 µM
  TGI: 72.2 µM
MALME-3M melanoma
  GI50: 5.66 µM
  TGI: > 100 µM
A498 renal
  GI50: 82.3 µM
  TGI: > 100 µM
HT29 colon
  GI50: 2.81 µM
  TGI: 10.1 µM
SF-539 CNS
  GI50: 2.51 µM
  TGI: 6.8 µM
HCT-116 colon
  GI50: 2.97 µM
  TGI: 10.5 µM
NCI/ADR-RES ovarian
  GI50: 2.16 µM
  TGI: 5.91 µM
DU-145 prostate
  GI50: 3.62 µM
  TGI: > 100 µM
T-47D breast
  GI50: 5.6 µM
  TGI: > 100 µM
SNB-19 CNS
  GI50: 9.17 µM
  TGI: > 100 µM
SF-295 CNS
  GI50: 3.07 µM
  TGI: 87 µM
NCI-H23 lung
  GI50: 5.55 µM
  TGI: 56.7 µM
SK-MEL-28 melanoma
  GI50: 8.33 µM
  TGI: > 100 µM
A549 NSCLC
  GI50: 4.71 µM
  TGI: > 100 µM
786-0 renal
  GI50: 3.7 µM
  TGI: > 100 µM
CCRF-CEM leukemia
  GI50: 3.15 µM
  TGI: 13.3 µM
M14 melanoma
  GI50: 3.76 µM
  TGI: > 100 µM
OVCAR-4 ovarian
  GI50: 8.82 µM
  TGI: > 100 µM
MDA-MB-435
  GI50: 1.61 µM
  TGI: 4.56 µM
SNB-75 CNS
  GI50: 2.63 µM
  TGI: 9.12 µM
TK-10 renal
  GI50: 9.97 µM
  TGI: > 100 µM
MDA-MB-468 breast
  GI50: 2.67 µM
  TGI: 19.3 µM
NCI-H460 lung
  GI50: 3.01 µM
  TGI: 12.5 µM
BT-549 breast
  GI50: 3.96 µM
  TGI: 9.44 µM
HCT-15 colon
  GI50: 3.36 µM
  TGI: > 100 µM
RXF 393 renal
  GI50: 5.03 µM
  TGI: 93.5 µM
SF-268 CNS
  GI50: 3.72 µM
  TGI: 84.3 µM
K-562 leukemia
  GI50: 2.18 µM
  TGI: > 100 µM
NCI-H522 lung
  GI50: 1.11 µM
  TGI: 11.1 µM
SK-MEL-2 melanoma
  GI50: 5.98 µM
  TGI: > 100 µM
HCC-2998 colon
  GI50: 4.21 µM
  TGI: > 100 µM
OVCAR-3 ovarian
  GI50: 2.24 µM
  TGI: 7.69 µM
MOLT-4 leukemia
  GI50: 3.37 µM
  TGI: 14.9 µM
RPMI-8226 leukemia
  GI50: 3.84 µM
  TGI: > 100 µM
COLO 205 colon
  GI50: 3.28 µM
  TGI: 12.9 µM
OVCAR-8 ovarian
  GI50: 3.24 µM
  TGI: 16.9 µM
OVCAR-5 ovarian
  GI50: 3.64 µM
  TGI: 25.8 µM
SK-OV-3 ovarian
  GI50: 5.45 µM
  TGI: > 100 µM
SN12C renal
  GI50: 3.74 µM
  TGI: 30.9 µM
NCI-H226 lung
  GI50: 3.39 µM
  TGI: > 100 µM
HS 578T breast
  GI50: 2.4 µM
  TGI: 8.62 µM
LOX IMVI melanoma
  GI50: 2.45 µM
  TGI: 36.4 µM
KM12 colon
  GI50: 3.08 µM
  TGI: 19.3 µM
SK-MEL-5 melanoma
  GI50: 2.7 µM
  TGI: 10.4 µM
HOP-92 NSCLC
  GI50: 9.83 µM
  TGI: > 100 µM
PC-3 prostate
  GI50: 3.75 µM
  TGI: > 100 µM
HL-60(TB) leukemia
  GI50: 2.16 µM
  TGI: 5.21 µM
IGROV1 ovarian
  GI50: 4.26 µM
  TGI: > 100 µM
CAKI-1 renal
  GI50: 3.19 µM
  TGI: 63.5 µM
SW-620 colon
  GI50: 3.71 µM
  TGI: > 100 µM
UACC-257 melanoma
  GI50: 25.5 µM
  TGI: > 100 µM
UACC-62 melanoma
  GI50: 3.35 µM
  TGI: > 100 µM
HOP-62 NSCLC
  GI50: 4.39 µM
  TGI: > 100 µM
ACHN renal
  GI50: 3.96 µM
  TGI: > 100 µM
SR leukemia
  GI50: 2.56 µM
  TGI: 17.7 µM
MCF7 breast
  GI50: 1.82 µM
  TGI: > 100 µM
EKVX NSCLC
  GI50: 7.39 µM
  TGI: > 100 µM
UO-31 renal
  GI50: 5.4 µM
  TGI: > 100 µM
